Like-named read-outs stand apart in the source and are kept apart here.
Assays:
[1] = oral
Experimental: Patients were initially treated in cohorts of six per dose level. […] Both drugs were administered orally. […] (Figure 1) The duration of one cycle was 28 days.
Toxicity was evaluated according to the common toxicity criteria for adverse events (AEs) (CTCAEv3.0).

[2] = Pharmacokinetics of sirolimus in blood (LC/MS/MS, non-compartmental); type: in vivo, patients; conditions: for Cmax / AUC(0-t) / half-life: human, whole blood; for half-life: read-out: t ½ (converted)
Excerpt: (§1) A paired t-test on log-transformed values was used to calculate changes in AUC, Cmax and t1/2. A P-value ⩽0.05 was considered significant.

[3] = no reference given, cited from earlier work
[4] = Pharmacokinetics of sorafenib in plasma (LC/MS/MS, non-compartmental); type: in vivo, patients; conditions: for Cmax: human, plasma
Excerpt: as §1

[5] = im, 1 mg, DL IM, sor 400 mg b.i.d., sir 1 mg q.d., cycle 1 day 1, single-dose sir, geometric mean (95% CI), n=3
[6] = im, DL IM, sor 400 mg b.i.d., sir 1 mg q.d., cycle 1 day 16, continuous dosing sor on single-dose sir, geometric mean (95% CI), n=3
[7] = oral, 1 mg, DL 0, sor 200 mg b.i.d., sir 1 mg q.d., cycle 1 day 1, single-dose sir, geometric mean (95% CI), n=6
[8] = oral, 2 mg, DL 1, Sor 200 mg b.i.d., sir 2 mg q.d., cycle 1 day 1, single-dose sir, geometric mean (95% CI), n=6
[9] = oral, DL 0, sor 200 mg b.i.d., sir 1 mg q.d., cycle 1 day 16, continuous dosing sor on single-dose sir, geometric mean (95% CI), n=6
[10] = oral, DL 1, Sor 200 mg b.i.d., sir 2 mg q.d., cycle 1 day 16, continuous dosing sor on single-dose sir, geometric mean (95% CI), n=6

CO[C@H]1C[C@@H]2CC[C@@H](C)[C@@](O)(O2)C(=O)C(=O)N2CCCC[C@H]2C(=O)O[C@H]([C@H](C)C[C@@H]2CC[C@@H](O)[C@H](OC)C2)CC(=O)[C@H](C)/C=C(\C)[C@@H](O)[C@@H](OC)C(=O)[C@H](C)C[C@H](C)/C=C/C=C/C=C/1C [sirolimus]
MTD of the combination, sirolimus dose ([1]; combined with sorafenib 200 mg b.i.d.): 1 mg q.d.
change in mean AUC(0−96 h) of sirolimus ([2]; DL 0, simultaneous administration of both drugs, P=0.955): no change
average reduction of Cmax of sirolimus ([2]; DL 0, non-significant, P=0.515): 18%
mean decrease of Cmax of sirolimus ([2]; DL 1, pre-treatment with 200 mg b.i.d. sorafenib, P=0.006): 55%
change of mean terminal half-life of sirolimus ([2]; DL 1, pre-treatment with 200 mg b.i.d. sorafenib, P=0.66): remained unchanged
decrease of AUC(0−96 h) of sirolimus ([2]; DL 1, pre-treatment with 200 mg b.i.d. sorafenib, non-significant, P=0.125): 37%
average decrease of Cmax of sirolimus ([2]; DLim, P=0.027): 55%
average decrease of AUC(0−96 h) of sirolimus ([2]; DLim, P=0.363): 25%
Cmax [2, 5]: 7.99 ng/mL
AUC(0-t) ([2]; im, 1 mg, DL IM, sor 400 mg b.i.d., sir 1 mg q.d., cycle 1 day 1, single-dose sir, geometric mean (95% CI), n=3, read-out: AUC(0–96 h)): 139 ng·h/mL
half-life [2, 5]: 2300 min
AUC(0-t) ([2]; im, AUC(0–12 h), DL IM, sor 400 mg b.i.d., sir 1 mg q.d., cycle 2 day 1, continuous sor on continuous sir, geometric mean (95% CI), n=2): 101 ng·h/mL
AUC(0-t) ([2]; im, AUC(0–12 h), DL IM, sor 400 mg b.i.d., sir 1 mg q.d., cycle 2 day 15, continuous sor on continuous sir, n=2): 113 ng·h/mL
Cmax [2, 6]: 3.62 ng/mL
AUC(0-t) ([2]; im, DL IM, sor 400 mg b.i.d., sir 1 mg q.d., cycle 1 day 16, continuous dosing sor on single-dose sir, geometric mean (95% CI), n=3, read-out: AUC(0–96 h)): 104 ng·h/mL
half-life [2, 6]: 1970 min
Cmax ([2]; im, DL IM, sor 400 mg b.i.d., sir 1 mg q.d., cycle 2 day 1, continuous sor on continuous sir, geometric mean (95% CI), n=2): 11.2 ng/mL
Cmax ([2]; im, DL IM, sor 400 mg b.i.d., sir 1 mg q.d., cycle 2 day 15, continuous sor on continuous sir, geometric mean (95% CI), n=2): 13.7 ng/mL
Cmax [2, 7]: 3.81 ng/mL
AUC(0-t) ([2]; oral, 1 mg, DL 0, sor 200 mg b.i.d., sir 1 mg q.d., cycle 1 day 1, single-dose sir, geometric mean (95% CI), n=6, read-out: AUC(0–96 h)): 91.1 ng·h/mL
half-life [2, 7]: 2730 min
Cmax [2, 8]: 5.74 ng/mL
AUC(0-t) ([2]; oral, 2 mg, DL 1, Sor 200 mg b.i.d., sir 2 mg q.d., cycle 1 day 1, single-dose sir, geometric mean (95% CI), n=6, read-out: AUC(0–96 h)): 124 ng·h/mL
half-life [2, 8]: 3030 min
AUC(0-t) ([2]; oral, AUC(0–12 h), DL 0, sor 200 mg b.i.d., sir 1 mg q.d., cycle 2 day 1, continuous sor on continuous sir, geometric mean (95% CI), n=6): 59.4 ng·h/mL
AUC(0-t) ([2]; oral, AUC(0–12 h), DL 0, sor 200 mg b.i.d., sir 1 mg q.d., cycle 2 day 15, continuous sor on continuous sir, geometric mean (95% CI), n=6): 57.8 ng·h/mL
AUC(0-t) ([2]; oral, AUC(0–12 h), DL 1, Sor 200 mg b.i.d., sir 2 mg q.d., cycle 2 day 1, continuous sor on continuous sir, geometric mean (95% CI), n=4): 88.2 ng·h/mL
AUC(0-t) ([2]; oral, AUC(0–12 h), DL 1, Sor 200 mg b.i.d., sir 2 mg q.d., cycle 2 day 15, continuous sor on continuous sir, n=1): 84.6 ng·h/mL
Cmax [2, 9]: 3.14 ng/mL
AUC(0-t) ([2]; oral, DL 0, sor 200 mg b.i.d., sir 1 mg q.d., cycle 1 day 16, continuous dosing sor on single-dose sir, geometric mean (95% CI), n=6, read-out: AUC(0–96 h)): 91.7 ng·h/mL
half-life [2, 9]: 3370 min
Cmax ([2]; oral, DL 0, sor 200 mg b.i.d., sir 1 mg q.d., cycle 2 day 1, continuous sor on continuous sir, geometric mean (95% CI), n=6): 6.3 ng/mL
Cmax ([2]; oral, DL 0, sor 200 mg b.i.d., sir 1 mg q.d., cycle 2 day 15, continuous sor on continuous sir, geometric mean (95% CI), n=6): 6.36 ng/mL
Cmax [2, 10]: 2.6 ng/mL
AUC(0-t) ([2]; oral, DL 1, Sor 200 mg b.i.d., sir 2 mg q.d., cycle 1 day 16, continuous dosing sor on single-dose sir, geometric mean (95% CI), n=6, read-out: AUC(0–96 h)): 78.2 ng·h/mL
half-life [2, 10]: 3150 min
Cmax ([2]; oral, DL 1, Sor 200 mg b.i.d., sir 2 mg q.d., cycle 2 day 1, continuous sor on continuous sir, geometric mean (95% CI), n=5): 10 ng/mL
Cmax ([2]; oral, DL 1, Sor 200 mg b.i.d., sir 2 mg q.d., cycle 2 day 15, continuous sor on continuous sir, n=2): 17.6 ng/mL
effect of sorafenib on AUC(0−96) and Cmax of sirolimus ([2]; overall statement of abstract): reduced
time until mean steady-state concentrations are achieved [3]: 5 to 7 days
terminal half-life ([3]; stable renal transplant recipients): 62 ± 12 h

CNC(=O)c1cc(Oc2ccc(NC(=O)Nc3ccc(Cl)c(C(F)(F)F)c3)cc2)ccn1 [sorafenib]
AUC(0–12 h) ([4]; DL 1, Sor 200 mg b.i.d., sir 2 mg q.d, cycle 2 day 1, continuous sir on continuous sor, geometric mean (95% CI), n=4): 39.3 (21–74) (n=4) mg h l^−1
mean decrease in AUC(0−12 h) of sorafenib ([4]; DLim, 1 mg sirolimus with 400 mg b.i.d. sorafenib, non-significant, P=0.14): 15%
mean decrease in Cmax of sorafenib ([4]; DLim, 1 mg sirolimus with 400 mg b.i.d. sorafenib, non-significant, P=0.57): 8%
Cmax ([4]; im, 400 mg b.i.d., DL IM, Sor 400 mg b.i.d., sir 1 mg q.d., cycle 1 day 15, continuous dosing sor, geometric mean (95% CI), n=4): 13000 ng/mL
Cmax ([4]; im, DL IM, Sor 400 mg b.i.d., sir 1 mg q.d., cycle 1 day 16, single-dose sir on continuous dosing sor, geometric mean (95% CI), n=4): 11900 ng/mL
Cmax ([4]; im, DL IM, Sor 400 mg b.i.d., sir 1 mg q.d., cycle 2 day 1, continuous sir on continuous sor, geometric mean (95% CI), n=4): 6640 ng/mL
Cmax ([4]; im, DL IM, Sor 400 mg b.i.d., sir 1 mg q.d., cycle 2 day 15, continuous sir on continuous sor, geometric mean (95% CI), n=2): 5550 ng/mL
Cmax ([4]; oral, 200 mg b.i.d., DL 0, Sor 200 mg b.i.d., sir 1 mg q.d., cycle 1 day 15, continuous dosing sor, geometric mean (95% CI), n=6): 7590 ng/mL
Cmax ([4]; oral, DL 0, Sor 200 mg b.i.d., sir 1 mg q.d., cycle 2 day 1, continuous sir on continuous sor, geometric mean (95% CI), n=6): 7120 ng/mL
Cmax ([4]; oral, DL 0, Sor 200 mg b.i.d., sir 1 mg q.d., cycle 2 day 15, continuous sir on continuous sor, geometric mean (95% CI), n=6): 7320 ng/mL
Cmax ([4]; oral, DL 1, Sor 200 mg b.i.d., sir 2 mg q.d, cycle 2 day 1, continuous sir on continuous sor, geometric mean (95% CI), n=4): 5150 ng/mL
effect of sirolimus on the PK of sorafenib ([4]; overall statement of abstract): did not change
influence of sirolimus on AUC(0−12 h) of sorafenib ([4]; single oral doses of 1 mg or 2 mg sirolimus, sorafenib 200 mg b.i.d. multiple dosing, P=0.67): did not influence
influence of sirolimus on Cmax of sorafenib ([4]; single oral doses of 1 mg or 2 mg sirolimus, sorafenib 200 mg b.i.d. multiple dosing, P=0.96): did not influence
MTD of the combination, sorafenib dose ([1]; combined with sirolimus 1 mg q.d.): 200 mg b.i.d.
elimination half-life [3]: 25 to 48 h

Source: paper PMC2994217 (British Journal of Cancer, 2010)
